From ChEMBL document CHEMBL5715949, “Discovery of a selective irreversible BMX inhibitor for prostate cancer” (ACS Chem Biol, 2013)
Active and inactive are the calls of the source. The calls are words filed in the database; no cut-off is given here.

Tests used:
[1] = target: Phosphorylase b kinase gamma catalytic chain, skeletal muscle/heart isoform (Homo sapiens) (UniProt Q16816); assay: Inhibition of PHKG1 (unknown origin) assessed as remaining activity at 1 uM by Kinome scan method relative to control
[2] = target: Serine/threonine-protein kinase MARK1 (Homo sapiens) (UniProt Q9P0L2); assay: Inhibition of MARK1 (unknown origin) assessed as remaining activity at 1 uM by Kinome scan method relative to control
[3] = Inhibition of PI3K/AKT/mTOR signalling pathway in human RV-1 cells assessed as decrease in AKT phosphorylation at T308 residue at 2.5 uM incubated for 4 hrs by immunoblot analysis; format: cell-based
[4] = target: Receptor-type tyrosine-protein kinase FLT3 (Homo sapiens) (UniProt P36888); assay: Inhibition of FLT3 (unknown origin) assessed as remaining activity at 1 uM by Kinome scan method relative to control
[5] = target: Citron Rho-interacting kinase (Homo sapiens) (UniProt O14578); assay: Inhibition of CIT (unknown origin) assessed as remaining activity at 1 uM by Kinome scan method relative to control
[6] = tested on: RV-1; assay: Antiproliferative activity against human RV-1 cells assessed as reduction in cell viability at 500 to 2500 nM incubated for 5 days in presence of erlotinib by CellTiter-Glo assay; format: functional, cell-based; details: dose 500-2500 nM, time 5.0 day
[7] = target: Casein kinase I isoform delta (Homo sapiens) (UniProt P48730); assay: Inhibition of CSNK1D (unknown origin) assessed as remaining activity at 1 uM by Kinome scan method relative to control
Sequence of Casein kinase I isoform delta (Homo sapiens) (P48730 whole entry, looked up, canonical isoform): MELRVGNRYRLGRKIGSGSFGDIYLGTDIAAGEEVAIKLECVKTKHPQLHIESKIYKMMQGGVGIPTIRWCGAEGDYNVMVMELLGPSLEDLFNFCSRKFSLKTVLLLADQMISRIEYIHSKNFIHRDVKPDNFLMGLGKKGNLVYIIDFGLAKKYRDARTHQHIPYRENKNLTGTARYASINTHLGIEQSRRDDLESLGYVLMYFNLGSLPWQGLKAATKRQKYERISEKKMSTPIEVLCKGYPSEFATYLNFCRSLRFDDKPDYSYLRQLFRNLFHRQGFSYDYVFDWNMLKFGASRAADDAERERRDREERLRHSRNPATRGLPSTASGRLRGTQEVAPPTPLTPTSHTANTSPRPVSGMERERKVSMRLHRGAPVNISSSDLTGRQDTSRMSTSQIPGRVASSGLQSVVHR

[8] = Down regulation of BMX protein expression in human RV-1 cells expressing BMX C496S mutant assessed protein expression level at 2.5 uM pre incubated for 4 hrs followed by compound wash out and additon of CHX and measured after 24 hrs by immunoblot analysis (reference value: 1.01 to 1.13); format: functional
[9] = tested on: RV-1; assay: Inhibition of MAPK signalling pathway in human RV-1 cells assessed as decrease in ERK1/2 phosphorylation at T202/204 residue at 2.5 uM incubated for 4 hrs by immunoblot analysis; format: cell-based
[10] = target: Serine/threonine-protein kinase Nek4 (Homo sapiens) (UniProt P51957); assay: Inhibition of NEK4 (unknown origin) assessed as remaining activity at 1 uM by Kinome scan method relative to control
[11] = Induction of cell cycle arrest in human RV-1 cells assessed as accumulation of cells at G1 phase at 2.5 uM incubated for 5 days in presence of MK2206 by propidium iodide staining based flow cytometric analysis (reference value: 59.7 %); format: functional; details: time 5 day
[12] = target: Serine/threonine-protein kinase PAK 5 (Homo sapiens) (UniProt Q9P286); assay: Inhibition of PAK7 (unknown origin) assessed as remaining activity at 1 uM by Kinome scan method relative to control
Sequence of Serine/threonine-protein kinase PAK 5 (Homo sapiens) (Q9P286 whole entry, looked up): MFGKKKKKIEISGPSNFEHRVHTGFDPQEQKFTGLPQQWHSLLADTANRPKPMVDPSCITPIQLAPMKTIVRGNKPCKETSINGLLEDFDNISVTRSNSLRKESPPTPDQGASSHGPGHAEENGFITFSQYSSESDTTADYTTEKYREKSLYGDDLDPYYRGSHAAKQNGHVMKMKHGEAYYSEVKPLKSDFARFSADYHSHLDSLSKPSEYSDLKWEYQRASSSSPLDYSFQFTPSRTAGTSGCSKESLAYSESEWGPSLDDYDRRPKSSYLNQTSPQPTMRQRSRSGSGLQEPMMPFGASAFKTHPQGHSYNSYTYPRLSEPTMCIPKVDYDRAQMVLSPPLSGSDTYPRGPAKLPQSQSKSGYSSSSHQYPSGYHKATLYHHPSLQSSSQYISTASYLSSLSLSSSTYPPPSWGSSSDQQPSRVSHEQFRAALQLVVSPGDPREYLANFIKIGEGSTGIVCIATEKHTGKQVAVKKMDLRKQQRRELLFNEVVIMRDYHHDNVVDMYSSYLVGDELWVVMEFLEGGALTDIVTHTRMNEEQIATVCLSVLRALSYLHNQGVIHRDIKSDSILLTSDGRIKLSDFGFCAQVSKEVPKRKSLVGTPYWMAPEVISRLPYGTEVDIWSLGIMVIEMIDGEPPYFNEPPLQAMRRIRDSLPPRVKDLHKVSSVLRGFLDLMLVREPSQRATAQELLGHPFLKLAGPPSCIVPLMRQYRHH

[13] = target: Receptor-interacting serine/threonine-protein kinase 1 (Homo sapiens) (UniProt Q13546); assay: Inhibition of RIPK1 (unknown origin) assessed as remaining activity at 1 uM by Kinome scan method relative to control
[14] = target: Calcium/calmodulin-dependent protein kinase type II subunit alpha (Homo sapiens) (UniProt Q9UQM7); assay: Inhibition of CAMK2A (unknown origin) assessed as remaining activity at 1 uM by Kinome scan method relative to control
Sequence of Calcium/calmodulin-dependent protein kinase type II subunit alpha (Homo sapiens) (Q9UQM7 whole entry): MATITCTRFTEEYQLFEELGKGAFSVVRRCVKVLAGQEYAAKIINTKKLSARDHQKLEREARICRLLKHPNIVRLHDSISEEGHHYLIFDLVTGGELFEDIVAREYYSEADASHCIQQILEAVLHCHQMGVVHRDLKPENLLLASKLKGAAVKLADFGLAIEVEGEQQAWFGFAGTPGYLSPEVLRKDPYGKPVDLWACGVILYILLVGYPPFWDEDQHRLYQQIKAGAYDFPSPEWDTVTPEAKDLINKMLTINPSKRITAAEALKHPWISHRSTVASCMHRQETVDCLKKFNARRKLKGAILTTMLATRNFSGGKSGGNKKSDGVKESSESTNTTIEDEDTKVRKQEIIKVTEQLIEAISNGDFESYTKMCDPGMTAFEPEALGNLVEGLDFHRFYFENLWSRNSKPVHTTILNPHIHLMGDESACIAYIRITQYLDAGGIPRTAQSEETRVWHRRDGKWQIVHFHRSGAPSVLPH

[15] = tested on: Mast/stem cell growth factor receptor Kit (Homo sapiens), P10721 [D816H]; assay: Inhibition of KIT D816H mutant (unknown origin) assessed as remaining activity at 1 uM by Kinome scan method relative to control
Sequence of Mast/stem cell growth factor receptor Kit (Homo sapiens), P10721 [D816H] (P10721 whole entry D816H): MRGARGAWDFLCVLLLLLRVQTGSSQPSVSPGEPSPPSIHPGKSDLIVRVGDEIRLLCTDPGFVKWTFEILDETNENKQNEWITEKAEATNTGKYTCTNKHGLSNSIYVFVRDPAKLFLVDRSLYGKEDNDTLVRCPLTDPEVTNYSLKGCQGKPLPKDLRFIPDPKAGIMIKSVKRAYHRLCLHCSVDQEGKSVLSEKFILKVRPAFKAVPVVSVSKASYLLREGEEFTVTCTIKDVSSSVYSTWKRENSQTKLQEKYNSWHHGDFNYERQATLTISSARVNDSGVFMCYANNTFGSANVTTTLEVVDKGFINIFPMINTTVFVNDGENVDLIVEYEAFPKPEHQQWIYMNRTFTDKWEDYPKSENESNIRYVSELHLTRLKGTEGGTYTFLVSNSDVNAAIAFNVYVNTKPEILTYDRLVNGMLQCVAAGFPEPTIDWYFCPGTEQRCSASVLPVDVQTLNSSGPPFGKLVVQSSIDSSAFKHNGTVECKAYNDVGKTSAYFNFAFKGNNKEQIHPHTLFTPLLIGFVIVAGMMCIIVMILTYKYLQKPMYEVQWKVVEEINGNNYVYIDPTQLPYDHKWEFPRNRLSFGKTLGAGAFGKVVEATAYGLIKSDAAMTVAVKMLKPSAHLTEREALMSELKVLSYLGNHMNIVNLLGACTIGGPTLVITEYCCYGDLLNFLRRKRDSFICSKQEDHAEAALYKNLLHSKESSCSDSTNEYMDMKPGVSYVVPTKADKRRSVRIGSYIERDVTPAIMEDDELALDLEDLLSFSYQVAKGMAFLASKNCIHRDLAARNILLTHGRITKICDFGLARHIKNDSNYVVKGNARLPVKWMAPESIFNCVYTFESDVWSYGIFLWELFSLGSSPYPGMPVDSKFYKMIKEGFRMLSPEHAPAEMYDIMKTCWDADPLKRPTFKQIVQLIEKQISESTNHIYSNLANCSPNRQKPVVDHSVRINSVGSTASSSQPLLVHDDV

[16] = tested on: DU-145; assay: Antiproliferative activity against human DU-145 cells assessed growth inhibition incubated for 2 to 5 days by CellTiter-Glo assay; format: functional; details: time 2-5 day
[17] = target: Serine/threonine-protein kinase PAK 1 (Homo sapiens) (UniProt Q13153); assay: Inhibition of PAK1 (unknown origin) assessed as remaining activity at 1 uM by Kinome scan method relative to control
[18] = target: MAP/microtubule affinity-regulating kinase 3 (Homo sapiens) (UniProt P27448); assay: Inhibition of MARK3 (unknown origin) assessed as remaining activity at 1 uM by Kinome scan method relative to control
Sequence of MAP/microtubule affinity-regulating kinase 3 (Homo sapiens) (P27448 whole entry, looked up): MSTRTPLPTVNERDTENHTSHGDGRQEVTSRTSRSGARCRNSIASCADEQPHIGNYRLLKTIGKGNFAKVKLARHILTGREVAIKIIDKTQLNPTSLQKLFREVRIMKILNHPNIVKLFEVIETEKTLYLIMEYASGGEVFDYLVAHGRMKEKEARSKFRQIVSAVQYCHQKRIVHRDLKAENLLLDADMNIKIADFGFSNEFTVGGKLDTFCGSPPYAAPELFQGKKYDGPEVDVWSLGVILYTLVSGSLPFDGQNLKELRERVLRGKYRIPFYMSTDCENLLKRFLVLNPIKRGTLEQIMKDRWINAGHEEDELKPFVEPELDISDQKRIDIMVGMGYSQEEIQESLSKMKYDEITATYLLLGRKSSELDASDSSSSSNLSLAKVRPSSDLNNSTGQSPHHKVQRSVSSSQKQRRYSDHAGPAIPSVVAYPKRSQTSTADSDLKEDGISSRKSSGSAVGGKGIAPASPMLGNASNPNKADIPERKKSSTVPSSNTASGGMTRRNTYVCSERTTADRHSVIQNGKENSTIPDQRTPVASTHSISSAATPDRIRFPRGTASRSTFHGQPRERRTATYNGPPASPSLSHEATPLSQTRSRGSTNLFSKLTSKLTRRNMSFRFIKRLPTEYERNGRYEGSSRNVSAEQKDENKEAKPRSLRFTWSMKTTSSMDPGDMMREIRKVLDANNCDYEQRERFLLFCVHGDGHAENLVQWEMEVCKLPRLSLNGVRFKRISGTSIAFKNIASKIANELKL

[19] = target: Dual specificity mitogen-activated protein kinase kinase 7 (Homo sapiens) (UniProt O14733); assay: Inhibition of MKK7 (unknown origin) assessed as remaining activity at 1 uM by Kinome scan method relative to control
Sequence of Dual specificity mitogen-activated protein kinase kinase 7 (Homo sapiens) (O14733 whole entry, the tested form may be a part): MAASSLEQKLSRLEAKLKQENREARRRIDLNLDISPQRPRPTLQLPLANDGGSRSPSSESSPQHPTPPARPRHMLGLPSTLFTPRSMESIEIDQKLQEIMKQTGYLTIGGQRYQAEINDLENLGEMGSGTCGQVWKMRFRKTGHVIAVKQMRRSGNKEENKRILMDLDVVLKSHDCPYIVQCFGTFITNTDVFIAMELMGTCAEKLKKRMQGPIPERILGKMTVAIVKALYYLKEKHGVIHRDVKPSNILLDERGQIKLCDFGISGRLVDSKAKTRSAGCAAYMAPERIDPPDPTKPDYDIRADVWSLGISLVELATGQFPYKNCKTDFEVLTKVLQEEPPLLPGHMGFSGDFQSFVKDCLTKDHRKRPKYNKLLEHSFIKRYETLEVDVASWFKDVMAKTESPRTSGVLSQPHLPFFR

[20] = target: Ribosomal protein S6 kinase alpha-6 (Homo sapiens) (UniProt Q9UK32); assay: Inhibition of C-terminal kinase domain RSK4 (unknown origin) assessed as remaining activity at 1 uM by Kinome scan method relative to control
[21] = target: Fibroblast growth factor receptor 1 (Homo sapiens) (UniProt P11362); assay: Inhibition of FGFR1 (unknown origin) assessed as remaining activity at 1 uM by Kinome scan method relative to control
[22] = target: Tyrosine-protein kinase Yes (Homo sapiens) (UniProt P07947); assay: Inhibition of YES (unknown origin) assessed as remaining activity at 1 uM by Kinome scan method relative to control
Sequence of Tyrosine-protein kinase Yes (Homo sapiens) (P07947 2-543 limits assumed): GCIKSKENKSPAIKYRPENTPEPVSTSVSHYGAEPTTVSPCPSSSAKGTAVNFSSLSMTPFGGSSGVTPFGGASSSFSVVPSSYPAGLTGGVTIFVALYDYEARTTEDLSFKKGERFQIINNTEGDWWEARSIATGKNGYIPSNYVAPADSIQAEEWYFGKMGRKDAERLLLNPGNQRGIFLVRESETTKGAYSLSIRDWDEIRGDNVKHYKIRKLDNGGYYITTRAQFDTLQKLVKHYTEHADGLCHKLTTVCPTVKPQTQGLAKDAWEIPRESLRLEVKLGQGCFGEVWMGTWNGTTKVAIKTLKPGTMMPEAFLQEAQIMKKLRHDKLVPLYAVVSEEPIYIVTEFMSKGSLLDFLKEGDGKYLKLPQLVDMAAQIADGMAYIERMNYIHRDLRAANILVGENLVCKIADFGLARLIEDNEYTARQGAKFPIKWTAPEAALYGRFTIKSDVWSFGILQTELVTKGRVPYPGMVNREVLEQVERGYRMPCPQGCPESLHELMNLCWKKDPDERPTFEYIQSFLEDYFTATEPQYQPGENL

[23] = target: Mitogen-activated protein kinase 1 (Homo sapiens) (UniProt P28482); assay: Inhibition of ERK2 (unknown origin) assessed as remaining activity at 1 uM by Kinome scan method relative to control
[24] = target: SRSF protein kinase 1 (Homo sapiens) (UniProt Q96SB4); assay: Inhibition of SRPK1 (unknown origin) assessed as remaining activity at 1 uM by Kinome scan method relative to control
[25] = target: Cyclin-dependent kinase 5 (Homo sapiens) (UniProt Q00535); assay: Inhibition of CDK5 (unknown origin) assessed as remaining activity at 1 uM by Kinome scan method relative to control
[26] = target: Macrophage colony-stimulating factor 1 receptor (Homo sapiens) (UniProt P07333); assay: Inhibition of CSF1R (unknown origin) assessed as remaining activity at 1 uM by Kinome scan method relative to control
[27] = target: RAC-alpha serine/threonine-protein kinase (Homo sapiens) (UniProt P31749); assay: Inhibition of AKT1 (unknown origin) assessed as remaining activity at 1 uM by Kinome scan method relative to control
Sequence of RAC-alpha serine/threonine-protein kinase (Homo sapiens) (P31749 whole entry): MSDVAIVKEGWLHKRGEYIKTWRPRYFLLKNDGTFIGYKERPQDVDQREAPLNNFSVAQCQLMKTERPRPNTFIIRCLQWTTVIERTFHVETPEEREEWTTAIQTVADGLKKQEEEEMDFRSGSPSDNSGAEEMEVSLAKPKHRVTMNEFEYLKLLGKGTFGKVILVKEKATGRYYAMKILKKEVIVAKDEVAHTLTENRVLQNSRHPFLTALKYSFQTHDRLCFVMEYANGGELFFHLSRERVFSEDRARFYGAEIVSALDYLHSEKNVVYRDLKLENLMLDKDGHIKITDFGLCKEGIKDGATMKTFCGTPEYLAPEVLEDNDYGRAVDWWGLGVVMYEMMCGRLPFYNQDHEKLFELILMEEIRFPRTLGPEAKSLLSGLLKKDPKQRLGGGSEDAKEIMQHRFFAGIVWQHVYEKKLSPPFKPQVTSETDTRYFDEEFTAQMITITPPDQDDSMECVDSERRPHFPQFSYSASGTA

[28] = tested on: Proto-oncogene tyrosine-protein kinase receptor Ret (Homo sapiens), P07949 [V804L]; assay: Inhibition of RET V804L (unknown origin) assessed as remaining activity at 1 uM by Kinome scan method relative to control
[29] = target: Tyrosine-protein kinase TXK (Homo sapiens) (UniProt P42681); assay: Inhibition of TXK (unknown origin) assessed as remaining activity at 1 uM by Kinome scan method relative to control
[30] = tested on: RV-1; assay: Down regulation of BMX protein expression in human RV-1 cells expressing wild type BMX at 5 uM incubated for 72 hrs by western blot analysis; format: functional, cell-based
[31] = target: Myotonin-protein kinase (Homo sapiens) (UniProt Q09013); assay: Inhibition of DMPK (unknown origin) assessed as remaining activity at 1 uM by Kinome scan method relative to control
[32] = tested on: BaF3; assay: Antiproliferative activity against mouse BaF3 cells expressing TEL-fused TYK2 […] mutant assessed growth inhibition incubated for 2 to 5 days by CellTiter-Glo assay; format: functional; details: time 2-5 day

For `C=CC(=O)Nc1cc(-n2c(=O)ccc3cnc4ccc(-c5ccc(NS(C)(=O)=O)cc5)cc4c32)ccc1C`, the Activity [1] was 86%, the Activity [2] was 97% and the inhibition [3] was “inactive”. The Activity [4] was 80%, the Activity [5] was 83% and the Activity [6] was “Active”. The Activity [7] was 84%, the Activity [8] was 0.83 and the inhibition [9] was “inactive”. It also gave an Activity [10] of 81%, an Activity [11] of 64.2% and an Activity [12] of 98%. It also gave an Activity [13] of 87%, an Activity [14] of 98% and an Activity [15] of 99%. The GI50 [16] was 4.38 µM, the Activity [17] was 86% and the Activity [18] was 75%. It also gave an Activity [19] of 49%, an Activity [20] of 56% and an Activity [21] of 92%. It also gave an Activity [22] of 74%, an Activity [23] of 94% and an Activity [24] of 78%. The Activity [25] was 88%, the Activity [26] was 94% and the Activity [27] was 12%. For the same molecule, the Activity [28] was 79%, the Activity [29] was 25% and the Activity [30] was “Active”. The Activity [31] was 91% and the GI50 [32] was 6.09 µM.
